Laboratory results from patent US20240158370A1, “CK1 alpha AND DUAL CK1 alpha / GSPT1 DEGRADING COMPOUNDS” (Innovo Therapeutics, Inc., priority 2022, published 2024).

How the values were obtained:
[1] = target: T1, CK1α (Homo sapiens, UniProt P48729+Q96SW2); assay: HiBiT degradation assay, CK1α, Procedure A; assay type: cell-based
T1 construct: CSNK1A1-HiBit KI HEK293(LgBit) Cells; host or cells: HEK293(LgBit) knock-in cells
Summary of the method: (§1)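 Luminescence from HiBiT lytic detection, read after 20 min shaking, gave DC50 and Ymin by 4-parameter fit. Before that, cells (1×10^6 cells/ml, DMEM+10% FBS) sat 6 h at 37° C on 10-point compound series (10 μM–0.005 μM, 0.1% DMSO).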

[2] = target: GSPT1 (Homo sapiens, UniProt P15170+Q96SW2); assay: HiBiT degradation assay, GSPT1, Procedure A; assay type: cell-based; set-up: HiBit-GSPT1 KI HEK293(LgBit) Cells; host or cells: HEK293(LgBit) knock-in cells
Summary of the method: as §1

T1 sequence (P48729 whole entry): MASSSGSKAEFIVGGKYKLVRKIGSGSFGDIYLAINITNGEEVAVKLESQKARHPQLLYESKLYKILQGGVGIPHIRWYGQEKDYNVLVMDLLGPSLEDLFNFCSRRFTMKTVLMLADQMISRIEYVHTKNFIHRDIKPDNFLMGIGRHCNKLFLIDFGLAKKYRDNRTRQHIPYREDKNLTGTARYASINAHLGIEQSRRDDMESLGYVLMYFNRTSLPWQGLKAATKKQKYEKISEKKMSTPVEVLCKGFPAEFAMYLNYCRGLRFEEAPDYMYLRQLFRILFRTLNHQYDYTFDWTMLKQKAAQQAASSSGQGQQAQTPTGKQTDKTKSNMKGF
T1 sequence (Q96SW2 whole entry): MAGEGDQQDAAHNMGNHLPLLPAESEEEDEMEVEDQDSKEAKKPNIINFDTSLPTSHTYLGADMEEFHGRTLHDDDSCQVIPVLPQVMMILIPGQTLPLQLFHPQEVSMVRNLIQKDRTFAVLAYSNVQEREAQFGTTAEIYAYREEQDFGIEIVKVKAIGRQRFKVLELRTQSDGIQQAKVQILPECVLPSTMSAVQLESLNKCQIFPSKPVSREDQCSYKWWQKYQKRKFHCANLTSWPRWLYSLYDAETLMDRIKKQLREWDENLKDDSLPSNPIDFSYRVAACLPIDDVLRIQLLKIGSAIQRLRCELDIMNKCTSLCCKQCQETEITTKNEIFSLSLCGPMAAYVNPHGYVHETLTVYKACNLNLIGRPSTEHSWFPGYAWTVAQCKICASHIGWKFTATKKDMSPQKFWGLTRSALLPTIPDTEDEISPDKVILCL
T1 sequence (Q16531 whole entry partner): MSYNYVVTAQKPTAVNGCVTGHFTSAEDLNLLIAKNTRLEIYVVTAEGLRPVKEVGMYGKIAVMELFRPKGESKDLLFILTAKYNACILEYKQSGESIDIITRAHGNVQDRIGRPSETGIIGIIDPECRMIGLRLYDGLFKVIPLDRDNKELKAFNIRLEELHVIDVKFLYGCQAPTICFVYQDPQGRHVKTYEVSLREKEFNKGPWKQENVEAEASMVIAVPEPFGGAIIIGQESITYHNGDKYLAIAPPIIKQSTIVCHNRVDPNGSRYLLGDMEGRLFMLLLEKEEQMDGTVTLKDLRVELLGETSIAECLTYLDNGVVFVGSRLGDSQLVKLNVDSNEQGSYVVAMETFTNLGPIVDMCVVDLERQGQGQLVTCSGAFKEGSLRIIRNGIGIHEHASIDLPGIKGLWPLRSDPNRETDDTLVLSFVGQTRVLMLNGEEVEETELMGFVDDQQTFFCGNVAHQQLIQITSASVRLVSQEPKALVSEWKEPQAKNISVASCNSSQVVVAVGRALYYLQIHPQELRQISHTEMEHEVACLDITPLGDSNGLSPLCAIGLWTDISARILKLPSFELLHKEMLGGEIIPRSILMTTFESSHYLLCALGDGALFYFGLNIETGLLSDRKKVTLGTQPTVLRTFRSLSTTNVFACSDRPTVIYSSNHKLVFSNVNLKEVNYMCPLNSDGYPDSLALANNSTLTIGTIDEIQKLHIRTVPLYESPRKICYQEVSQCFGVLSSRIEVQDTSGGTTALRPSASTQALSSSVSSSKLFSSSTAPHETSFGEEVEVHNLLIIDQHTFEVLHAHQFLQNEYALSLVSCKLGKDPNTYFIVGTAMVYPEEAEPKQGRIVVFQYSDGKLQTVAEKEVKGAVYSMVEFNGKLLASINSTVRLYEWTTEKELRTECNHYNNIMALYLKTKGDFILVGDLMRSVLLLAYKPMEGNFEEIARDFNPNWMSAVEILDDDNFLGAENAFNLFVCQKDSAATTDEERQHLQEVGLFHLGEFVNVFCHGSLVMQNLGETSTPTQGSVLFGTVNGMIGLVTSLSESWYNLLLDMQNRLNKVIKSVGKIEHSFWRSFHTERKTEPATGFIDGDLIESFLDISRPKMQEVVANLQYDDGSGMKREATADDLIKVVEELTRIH
Chain of GSPT1 (P15170 whole entry): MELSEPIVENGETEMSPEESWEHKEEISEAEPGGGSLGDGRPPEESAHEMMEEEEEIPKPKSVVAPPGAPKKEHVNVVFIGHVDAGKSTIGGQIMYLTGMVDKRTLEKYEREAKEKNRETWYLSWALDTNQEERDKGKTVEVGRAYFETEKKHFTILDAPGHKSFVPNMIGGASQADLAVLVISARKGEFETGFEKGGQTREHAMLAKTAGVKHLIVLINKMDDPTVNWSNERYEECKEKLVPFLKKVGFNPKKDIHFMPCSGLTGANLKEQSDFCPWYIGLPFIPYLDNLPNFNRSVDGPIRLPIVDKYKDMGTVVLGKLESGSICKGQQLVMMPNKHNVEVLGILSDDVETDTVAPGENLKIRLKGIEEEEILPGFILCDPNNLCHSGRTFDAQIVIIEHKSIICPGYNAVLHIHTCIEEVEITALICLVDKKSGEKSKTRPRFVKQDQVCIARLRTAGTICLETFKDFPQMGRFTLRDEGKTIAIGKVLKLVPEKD
Chain of GSPT1 (Q96SW2 whole entry): as the sequence (Q96SW2 whole entry) above
Chain of GSPT1 (Q16531 whole entry partner): as the sequence (Q16531 whole entry partner) above

SMILES | CK1α Ymin ([1]; six hours) | DC50 ([1]; six hours) [µM] | DC50 ([2]; six hours) [µM] | GSPT1 Ymin ([2]; six hours) | CK1α Ymin ([1]; six hours incubation) | DC50 ([1]; six hours incubation) [µM] | DC50 ([2]; six hours incubation) [µM] | GSPT1 Ymin ([2]; six hours incubation)
COc1ccc(-c2c(-c3ccc4c(c3)CN(C3CCC(=O)NC3=O)C4=O)ncn2C)cc1Cl (centres unmarked) [Example 276] | – | – | – | – | C (C = 0-10% remaining) | < 0.025 | < 0.025 | F (F = >75-100% remaining)
COc1ccc(-c2c(-c3ccc4c(c3)CN(C3CCC(=O)NC3=O)C4=O)cnn2C)cc1OCc1ccccc1 (centres unmarked) [Example 113] | – | – | – | – | D (D = >10- 25% remaining) | < 0.025 | ≥ 0.025 | F (F = >75-100% remaining)
Cc1cccc(F)c1-c1c(-c2ccc3c(c2)CN(C2CCC(=O)NC2=O)C3=O)ncn1C (centres unmarked) [Example 172] | – | – | – | – | E (E = >25-75% remaining) | < 0.025 | ≥ 0.025 | F (F = >75-100% remaining)
Cn1cnc(-c2ccc3c(c2)CN(C2CCC(=O)NC2=O)C3=O)c1-c1ccc(Cl)c(C#N)c1 (centres unmarked) [Example 270] | – | – | – | – | D (D = >10- 25% remaining) | < 0.025 | ≥ 0.025 | F (F = >75-100% remaining)
Cn1cnc(-c2ccc3c(c2)CN(C2CCC(=O)NC2=O)C3=O)c1-c1ccc(OCc2ccccc2)c(Cl)c1 (centres unmarked) [Example 304] | – | – | – | – | D (D = >10- 25% remaining) | < 0.025 | < 0.025 | F (F = >75-100% remaining)
Cn1ncc(-c2ccc3c(c2)CN(C2CCC(=O)NC2=O)C3=O)c1-c1cccc(N2CCCCC2)c1 (centres unmarked) [Example 111] | – | – | – | – | F (F = >75-100% remaining) | ≥ 0.025 | ≥ 0.025 | F (F = >75-100% remaining)
Cn1ncc(-c2ccc3c(c2)CN(C2CCC(=O)NC2=O)C3=O)c1-c1ccc(N2CCCC2)cc1 (centres unmarked) [Example 159] | – | – | – | – | D (D = >10- 25% remaining) | < 0.025 | ≥ 0.025 | F (F = >75-100% remaining)
COc1c(Cl)cccc1-c1c(-c2ccc3c(c2)CN(C2CCC(=O)NC2=O)C3=O)ncn1C (centres unmarked) [Example 278] | – | – | – | – | E (E = >25-75% remaining) | < 0.025 | ≥ 0.025 | F (F = >75-100% remaining)
CN1CCN(Cc2ccc(-c3c(-c4ccc5c(c4)CN(C4CCC(=O)NC4=O)C5=O)ncn3C)cc2)CC1 (centres unmarked) [Example 313] | – | – | – | – | D (D = >10- 25% remaining) | ≥ 0.025 | ≥ 0.025 | F (F = >75-100% remaining)
COc1ccc(-c2c(-c3ccc4c(c3)CN(C3CCC(=O)NC3=O)C4=O)cnn2C)c(C)c1 (centres unmarked) [Example 143] | – | – | – | – | D (D = >10- 25% remaining) | < 0.025 | ≥ 0.025 | F (F = >75-100% remaining)
Cn1cnc(-c2ccc3c(c2)CN(C2CCC(=O)NC2=O)C3=O)c1-c1ccc(F)c(Cl)c1 (centres unmarked) [Example 257] | – | – | – | – | D (D = >10- 25% remaining) | < 0.025 | ≥ 0.025 | F (F = >75-100% remaining)
Cn1cnc(-c2ccc3c(c2)CN(C2CCC(=O)NC2=O)C3=O)c1-c1cccc(Cl)c1Cl (centres unmarked) [Example 284] | – | – | – | – | E (E = >25-75% remaining) | < 0.025 | ≥ 0.025 | F (F = >75-100% remaining)
Cc1c(-c2ccc3c(c2)CN(C2CCC(=O)NC2=O)C3=O)nn(C)c1-c1ccccc1 (centres unmarked) [Example 211, 3-(5-(1,4-Dimethyl-5-phenyl-1H-pyrazol-3-yl)-1-oxoisoindolin-2-yl)piperidine-2,6-dione] | – | – | – | – | C (C = 0-10% remaining) | < 0.025 | ≥ 0.025 | F (F = >75-100% remaining)
Cn1cnc(-c2ccc3c(c2)CN(C2CCC(=O)NC2=O)C3=O)c1-c1ccc(F)cc1Cl (centres unmarked) [Example 259] | – | – | – | – | D (D = >10- 25% remaining) | < 0.025 | < 0.025 | E (E = >25-75% remaining)
Cn1ncc(-c2ccc3c(c2)CN(C2CCC(=O)NC2=O)C3=O)c1-c1cccc(N2CCCC2)c1 (centres unmarked) [Example 55] | – | – | – | – | E (E = >25-75% remaining) | < 0.025 | ≥ 0.025 | F (F = >75-100% remaining)
O=C1CCC(N2Cc3cc(-c4cnn(C(F)F)c4-c4ccccc4)ccc3C2=O)C(=O)N1 (centres unmarked) [Example 27, 3-(5-(1-(difluoromethyl)-5-phenyl-1H-pyrazol-4-yl)-1-oxoisoindolin-2-yl)piperidine-2,6-dione] | – | – | – | – | D (D = >10- 25% remaining) | < 0.025 | ≥ 0.025 | F (F = >75-100% remaining)
Cn1cnc(-c2ccc3c(c2)CN(C2CCC(=O)NC2=O)C3=O)c1-c1cccc(O)c1 (centres unmarked) [Example 228] | – | – | – | – | C (C = 0-10% remaining) | < 0.025 | ≥ 0.025 | D (D = >10- 25% remaining)
Cc1ccc(-c2c(-c3ccc4c(c3)CN(C3CCC(=O)NC3=O)C4=O)cnn2C)cc1F (centres unmarked) [Example 151] | – | – | – | – | E (E = >25-75% remaining) | < 0.025 | ≥ 0.025 | F (F = >75-100% remaining)
O=C1CCC(N2Cc3cc(-c4nc(-c5ccccc5)co4)ccc3C2=O)C(=O)N1 (centres unmarked) [Example 42, 3-(1-Oxo-5-(4-phenyloxazol-2-yl)isoindolin-2-yl)piperidine-2,6-dione] | – | – | – | – | E (E = >25-75% remaining) | < 0.025 | ≥ 0.025 | F (F = >75-100% remaining)
COc1ccc(-c2c(-c3ccc4c(c3)CN(C3CCC(=O)NC3=O)C4=O)cnn2C)cc1F (centres unmarked) [Example 104] | – | – | – | – | C (C = 0-10% remaining) | < 0.025 | ≥ 0.025 | F (F = >75-100% remaining)
Cn1cnc(-c2ccc3c(c2)CN(C2CCC(=O)NC2=O)C3=O)c1-c1ccc(N2CCOCC2)c(Cl)c1 (centres unmarked) [Example 315] | – | – | – | – | D (D = >10- 25% remaining) | < 0.025 | ≥ 0.025 | F (F = >75-100% remaining)
O=C1CCC(N2Cc3cc(-c4ncsc4-c4ccccc4)ccc3C2=O)C(=O)N1 (centres unmarked) [Example 23, 3-(1-Oxo-5-(5-phenylthiazol-4-yl)isoindolin-2-yl) piperidine-2,6-dione] | – | – | – | – | D (D = >10- 25% remaining) | < 0.025 | ≥ 0.025 | E (E = >25-75% remaining)
Cc1ccc(-c2c(-c3ccc4c(c3)CN(C3CCC(=O)NC3=O)C4=O)cnn2C)c(C#N)c1 (centres unmarked) [Example 109] | – | – | – | – | E (E = >25-75% remaining) | < 0.025 | ≥ 0.025 | F (F = >75-100% remaining)

Continued, values first:

CK1α Ymin ([1]; six hours) | DC50 ([1]; six hours) [µM] | DC50 ([2]; six hours) [µM] | GSPT1 Ymin ([2]; six hours) | CK1α Ymin ([1]; six hours incubation) | DC50 ([1]; six hours incubation) [µM] | DC50 ([2]; six hours incubation) [µM] | GSPT1 Ymin ([2]; six hours incubation) | SMILES
C (C = 0-10% remaining) | < 0.025 | < 0.025 | E (E = >25-75% remaining) | – | – | – | – | Cn1cnc(-c2ccc3c(c2)CN(C2CCC(=O)NC2=O)C3=O)c1-c1ccccc1N (centres unmarked) [Example 440]
– | – | – | – | D (D = >10- 25% remaining) | < 0.025 | ≥ 0.025 | F (F = >75-100% remaining) | Cn1cc(-c2c(-c3ccc4c(c3)CN(C3CCC(=O)NC3=O)C4=O)cnn2C)cc1C#N (centres unmarked) [Example 375]
C (C = 0-10% remaining) | < 0.025 | ≥ 0.025 | F (F = >75-100% remaining) | – | – | – | – | COc1ccc(-c2nc(-c3ccc4c(c3)CN(C3CCC(=O)NC3=O)C4=O)cn2C)cc1 (centres unmarked) [Example 557]
D (D = >10- 25% remaining) | ≥ 0.025 | ≥ 0.025 | F (F = >75-100% remaining) | – | – | – | – | Cn1ncc(-c2ccc3c(c2)CN(C2CCC(=O)NC2=O)C3=O)c1-c1ccc2ncn(C)c2c1 (centres unmarked) [Example 463]
C (C = 0-10% remaining) | < 0.025 | < 0.025 | C (C = 0-10% remaining) | – | – | – | – | Cn1cnc(-c2ccc3c(c2)CN(C2CCC(=O)NC2=O)C3=O)c1-c1ccc2cc[nH]c2c1 (centres unmarked) [Example 525]
E (E = >25-75% remaining) | ≥ 0.025 | ≥ 0.025 | F (F = >75-100% remaining) | – | – | – | – | Cn1ncc(-c2ccc3c(c2)CN(C2CCC(=O)NC2=O)C3=O)c1-c1cccc(C#N)n1 (centres unmarked) [Example 455]
C (C = 0-10% remaining) | < 0.025 | ≥ 0.025 | F (F = >75-100% remaining) | – | – | – | – | Cc1cc(-c2nc(-c3ccc4c(c3)CN(C3CCC(=O)NC3=O)C4=O)cn2C)ccc1N (centres unmarked) [Example 558]
E (E = >25-75% remaining) | < 0.025 | ≥ 0.025 | F (F = >75-100% remaining) | – | – | – | – | Cn1ncc(-c2ccc3c(c2)CN(C2CCC(=O)NC2=O)C3=O)c1-c1cnn2ccccc12 (centres unmarked) [Example 383]
E (E = >25-75% remaining) | < 0.025 | ≥ 0.025 | F (F = >75-100% remaining) | – | – | – | – | Cn1cnc(-c2ccc3c(c2)CN(C2CCC(=O)NC2=O)C3=O)c1-c1ccc(F)cc1C(F)(F)F (centres unmarked) [Example 445]
F (F = >75-100% remaining) | < 0.025 | < 0.025 | E (E = >25-75% remaining) | – | – | – | – | Cn1ncc(-c2ccc3c(c2)CN(C2CCC(=O)NC2=O)C3=O)c1-c1cnn(-c2ccccc2)c1 (centres unmarked) [Example 395]
E (E = >25-75% remaining) | ≥ 0.025 | ≥ 0.025 | F (F = >75-100% remaining) | – | – | – | – | Cn1ncc(-c2ccc3c(c2)CN(C2CCC(=O)NC2=O)C3=O)c1-c1cccc(CCCCCCc2ccccc2)c1 (centres unmarked) [Example 409]
E (E = >25-75% remaining) | < 0.025 | < 0.025 | F (F = >75-100% remaining) | – | – | – | – | [2H]C([2H])([2H])n1ncc(-c2ccc3c(c2)CN(C2CCC(=O)NC2=O)C3=O)c1-c1ccc(OC(F)(F)F)cc1 (centres unmarked) [Example 435, 3-(5-(1-(methyl-d3)-5-(4-(trifluoromethoxy)phenyl)-1H-pyrazol-4-yl)-1-oxoisoindolin-2-yl) piperidine-2,6-dione]
